Biological target: T1, PTP-1B (Homo sapiens, UniProt P18031)
T1 construct: PTP-1B (purified, 1 mg/mL) as a 1:250 dilution
T1 sequence (P18031 1-321 limits assumed): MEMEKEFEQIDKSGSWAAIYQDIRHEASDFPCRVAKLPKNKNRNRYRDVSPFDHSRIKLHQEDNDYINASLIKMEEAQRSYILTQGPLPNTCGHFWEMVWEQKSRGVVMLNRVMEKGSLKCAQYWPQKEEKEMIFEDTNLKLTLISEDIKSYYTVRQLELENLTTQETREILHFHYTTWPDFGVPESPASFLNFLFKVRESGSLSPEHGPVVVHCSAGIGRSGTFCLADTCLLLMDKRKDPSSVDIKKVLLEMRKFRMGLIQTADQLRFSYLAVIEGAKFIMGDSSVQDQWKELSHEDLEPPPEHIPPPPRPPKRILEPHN
Experiment: pNPP tyrosine phosphatase inhibition assay, PTP-1B
Type: biochemical
Conditions: pNPP assay, PTP-1B; read-out: Activity Class (IC50 ranges)
Description: The compounds provided herein are evaluated for biological activity as inhibitors of PTP-1B using, for example, a pNPP assay can be used to screen compounds for tyrosine phosphatase inhibitory activity as described in the Examples.
A 5× stock of pNPP (p-nitrophenol phosphate) substrate is prepared as 50 mM pNPP in assay buffer. Various tyrosine phosphatase solutions can be prepared as follows: • PTP-1B (purified, 1 mg/mL) as a 1:250 dilution (to a final concentration of 4:g/mL); • TC-PTP (NEB, 1000 units in 100:L) as a 1:50 dilution (to a final concentration of 2U/10:L (4:g/mL)); • CD45 (Calbiochem, 20:g, 400 units in 100:L) as a 1:50 dilution (to a final concentration of 0.8U/10:L (4:g/mL)); • LAR (NEB, 1000 units in 200:L) as a 1:75 dilution (to a final concentration of 0.7U/10:L (4:g/mL)); and • PTP-β (UBI, #14-350, 10,000 units, 40:g/571:L) as a 1:17.5 dilution (to a final concentration of 10U/10:L (4:g/mL));
The compound to be tested is prepared as 1:16.7 and 1:50 dilutions from stock in a total volume of […] DMSO to give final concentrations of 626 and 200:M. The reaction mixtures are prepared in a 96-well microtiter plate (on ice) as 55:L assay buffer, 5:L of the diluted compound (to a final concentration of 31.3 and 10:M), 20:L of the pNPP substrate solution (to a final concentration of 10 mM) and 20:L PTPase in assay buffer. The reactants are mixed well, the plate placed in a water bath at 30° C. and incubated for 10 minutes. The reaction is then terminated by adding 100:L of 2M K2CO3 per well, and the absorbance is measured at 405 nm by conventional means.
Unless otherwise indicated, this assay was used to determine activity for the selected compounds whose activity is provided in Table 1.

Row | Compound | IC50
1 | O=P(O)(O)C(F)(F)c1ccc(CN(Cc2ccc(C(F)(F)P(=O)(O)O)cc2)S(=O)(=O)c2ccc(Cl)c(Cl)c2)cc1 [Compound 77, {[4-({(3,4-Dichloro-benzenesulfonyl)-[4-(difluoro-phosphono-methyl)-benzyl]-amino}-methyl)-phenyl]-difluoro-methyl}-phosphonic acid] | 250 to 499 nM
2 | {[4-(difluorophosphonomethyl)-3-chlorophenyl]methyl}[(2-(2,3-dihydrobenzo[b]furan-5-yl)phenyl)methyl][(2-methoxyphenyl)sulfonyl]amine [Compound 204] | < 99 nM
3 | COc1ccccc1S(=O)(=O)N(Cc1ccc(S(C)(=O)=O)cc1)Cc1ccc(C(F)(F)P(=O)(O)O)c(Br)c1 [Compound 108, [(2-Bromo-4-{[(4-methanesulfonyl-benzyl)-(2-methoxy-benzenesulfonyl)-amino]-methyl}-phenyl)-difluoro-methyl]-phosphonic acid] | 250 to 499 nM
4 | 2-(3-{4-[({[4-(difluorophosphonomethyl)-3-chlorophenyl]methyl}[(2-methoxyphenyl)sulfonyl]amino)methyl]phenyl}phenyl)acetic acid [Compound 193] | < 99 nM
5 | COc1ccccc1S(=O)(=O)N(Cc1ccc(Cl)c(Cl)c1)Cc1ccc(NC(=O)C(=O)O)c(C(=O)O)c1 [Compound 56, 5-{[(3,4-Dichloro-benzyl)-(2-methoxy-benzenesulfonyl)-amino]-methyl}-2-(oxalyl-amino)-benzoic acid] | > 25000 nM
6 | CS(=O)(=O)c1ccc(CN(Cc2ccc(C(F)(F)P(=O)(O)O)c(Br)c2)S(=O)(=O)c2ccccc2Cl)cc1 [Compound 102, [(2-Bromo-4-{[(2-chloro-benzenesulfonyl)-(4-methanesulfonyl-benzyl)-amino]-methyl}-phenyl)-difluoro-methyl]-phosphonic acid] | 100 to 249 nM
7 | CC(=O)N(Cc1ccc(C(F)(F)P(=O)(O)O)cc1)Cc1ccc(C(F)(F)P(=O)(O)O)cc1 [Compound 59, {[4-({Acetyl-[4-(difluoro-phosphono-methyl)-benzyl]-amino}-methyl)-phenyl]-difluoro-methyl}-phosphonic acid] | > 25000 nM
8 | 2,2-Dimethyl-propionic acid [(2-chloro-4-{[(3,4-dichloro-benzyl)-(2-methoxy-benzenesulfonyl)-amino]-methyl}-phenyl)-difluoro-methyl]-hydroxy-phosphinoyloxymethyl ester [Compound 150] | 250 to 499 nM
9 | COc1ccccc1S(=O)(=O)N(Cc1ccc(C(F)(F)P(=O)(O)O)cc1)Cc1ccc(C(F)(F)P(=O)(O)O)cc1 [Compound 85, [(4-{[[4-(Difluoro-phosphono-methyl)-benzyl]-(2-methoxy-benzenesulfonyl)-amino]-methyl}-phenyl)-difluoro-methyl]-phosphonic acid] | 250 to 499 nM
10 | O=P(O)(O)C(F)(F)c1ccc(CN(Cc2ccc(C(F)(F)P(=O)(O)O)cc2)S(=O)(=O)c2ccc(-c3ccccc3)cc2)cc1 [Compound 66, {[4-({(Biphenyl-4-sulfonyl)-[4-(difluoro-phosphono-methyl)-benzyl]-amino}-methyl)-phenyl]-difluoro-methyl}-phosphonic acid] | 250 to 499 nM
11 | COc1ccccc1S(=O)(=O)N(Cc1ccc(-c2cccc(C#N)c2)cc1)Cc1ccc(C(F)(F)P(=O)(O)OC)c(Cl)c1 [Compound 165, [(2-Chloro-4-{[(3′-cyano-biphenyl-4-ylmethyl)-(2-methoxy-benzenesulfonyl)-amino]-methyl}-phenyl)-difluoro-methyl]-phosphonic acid monomethyl ester] | 2500 to 25000 nM
12 | Methyl 3-{4-[({[4-(difluorophosphonomethyl)-3-chlorophenyl]methyl}[(2-methoxyphenyl)sulfonyl]amino)methyl]phenyl}-5-bromobenzoate [Compound 194] | 250 to 499 nM

The next lines start with the values.

Row | IC50 | Compound
13 | < 99 nM | COc1cccc(-c2ccccc2CN(Cc2ccc(C(F)(F)P(=O)(O)O)c(Cl)c2)S(=O)(=O)c2ccccc2OC)c1 [Compound 183, [(2-Chloro-4-{[(2-methoxy-benzenesulfonyl)-(3′-methoxy-biphenyl-2-ylmethyl)-amino]-methyl}-phenyl)-difluoro-methyl]-phosphonic acid]
14 | < 99 nM | COc1ccccc1S(=O)(=O)N(Cc1ccc(-c2ccc(Cl)c(C(=O)O)c2)cc1)Cc1ccc(C(F)(F)P(=O)(O)O)c(Cl)c1 [Compound 176, 4-Chloro-4′-{[[3-chloro-4-(difluoro-phosphono-methyl)-benzyl]-(2-methoxy-benzenesulfonyl)-amino]-methyl}-biphenyl-3-carboxylic acid]
15 | > 25000 nM | COc1ccccc1S(=O)(=O)N(Cc1ccc(C#N)cc1)Cc1ccc(C=CC(=O)O)cc1 [Compound 124, 3-{4-[N-(4-cyanobenzyl)-N-(2-methoxy-benzenesulfonyl)aminomethyl]-phenyl}-acrylic acid]
16 | < 99 nM | O=P(O)(O)C(F)(F)c1ccc(CN(Cc2ccc(-c3cccc(-c4nn[nH]n4)c3)cc2)S(=O)(=O)c2ccc3ccccc3c2)cc1Cl [Compound 158, {[2-Chloro-4-({(naphthalene-2-sulfonyl)-[3′-(2H-tetrazol-5-yl)-biphenyl-4-ylmethyl]-amino}-methyl)-phenyl]-difluoro-methyl}-phosphonic acid]
17 | > 25000 nM | 3-{2-Bromo-4-[N-(4-cyanobenzyl)-N-(2-methoxy-benzenesulfonyl)aminomethyl]-phenoxy}-acetic acid [Compound 121]
18 | > 25000 nM | COc1ccccc1S(=O)(=O)N(Cc1ccc(C(=O)O)cc1)Cc1ccc(-c2nnn[nH]2)cc1 [Compound 116, N-(4-[hydroxycarbonyl]-benzyl)-2-methoxy-N-[4-(1H-tetrazol-5-yl)-benzyl]-benzenesulfonamide]
19 | > 25000 nM | COc1ccccc1S(=O)(=O)N(Cc1ccc(N(C)C(=O)C(=O)O)cc1)Cc1ccc(N(C)C(=O)C(=O)O)cc1 [Compound 141, N-[4-({(2-Methoxy-benzenesulfonyl)-[4-(methyl-oxalyl-amino)-benzyl]-amino}-methyl)-phenyl]-N-methyl-oxalamic acid]
20 | 250 to 499 nM | O=P(O)(O)C(F)(F)c1ccc(CN(Cc2ccc(Cl)c(Cl)c2)S(=O)(=O)c2ccc(Oc3ccccc3)cc2)cc1Br [Compound 109, [(2-Bromo-4-{[(3,4-dichloro-benzyl)-(4-phenoxy-benzenesulfonyl)-amino]-methyl}-phenyl)-difluoro-methyl]-phosphonic acid]
21 | > 25000 nM | COc1ccccc1S(=O)(=O)N(Cc1ccc(C#N)cc1)Cc1ccc(NC(=O)C(=O)O)c(C(=O)O)c1 [Compound 133]
22 | 100 to 249 nM | COc1ccccc1S(=O)(=O)N(Cc1ccc(-c2ccc(Cc3nn[nH]n3)cc2)cc1)Cc1ccc(C(F)(F)P(=O)(O)O)c(Cl)c1 [Compound 153, {[2-Chloro-4-({(2-methoxy-benzenesulfonyl)-[4′-(2H-tetrazol-5-ylmethyl)-biphenyl-4-ylmethyl]-amino}-methyl)-phenyl]-difluoro-methyl}-phosphonic acid]
23 | 250 to 499 nM | COc1ccccc1S(=O)(=O)N(CCc1cccc(-c2cccc(C(=O)O)c2)c1)Cc1ccc(C(F)(F)P(=O)(O)O)c(Cl)c1 [Compound 189, 3′-{2-[[3-Chloro-4-(difluoro-phosphono-methyl)-benzyl]-(2-methoxy-benzenesulfonyl)-amino]-ethyl}-biphenyl-3-carboxylic acid]
24 | > 25000 nM | COc1ccccc1S(=O)(=O)N(Cc1ccc(C#N)cc1)Cc1ccc(NS(=O)(=O)C(F)(F)F)cc1 [Compound 117, N-(4-(N-trifluoro-methanesulfonyl-amino]benzyl)-N-(4-cyanobenzyl)-(2-methoxy)benzenesulfonamide]
25 | > 25000 nM | COc1ccccc1S(=O)(=O)N(Cc1ccc(C#N)cc1)Cc1ccc(C(O)C(O)C(=O)O)c(Br)c1 (centres unmarked) [Compound 123, 1,2-dihydroxy-3-{2-Bromo-4-[N-(4-cyanobenzyl)-N-(2-methoxy-benzenesulfonyl)aminomethyl]-phenyl}-propionic acid]
26 | 250 to 499 nM | N#Cc1cccc(-c2ccc(CN(Cc3ccc(C(F)(F)P(=O)(O)O)c(Cl)c3)S(=O)(=O)c3ccc4ccccc4c3)cc2)c1 [Compound 154, [(2-Chloro-4-{[(3′-cyano-biphenyl-4-ylmethyl)-(naphthalene-2-sulfonyl)-amino]-methyl}-phenyl)-difluoro-methyl]-phosphonic acid]

From patent US20060135773A1, “Trisubstituted nitrogen modulators of tyrosine phosphatases” (priority 2004, published 2006)
